{"source": "patent US20060127990A1", "about": "“4'-thionucleotide” (GENETICLAB CO., LTD, priority 2002, published 2006)", "key": {"T7 RNA polymerase [1]": {"biological_target": "T1, T7 RNA polymerase (Escherichia phage T7, UniProt P00573)", "T1 sequence (P00573 whole entry)": "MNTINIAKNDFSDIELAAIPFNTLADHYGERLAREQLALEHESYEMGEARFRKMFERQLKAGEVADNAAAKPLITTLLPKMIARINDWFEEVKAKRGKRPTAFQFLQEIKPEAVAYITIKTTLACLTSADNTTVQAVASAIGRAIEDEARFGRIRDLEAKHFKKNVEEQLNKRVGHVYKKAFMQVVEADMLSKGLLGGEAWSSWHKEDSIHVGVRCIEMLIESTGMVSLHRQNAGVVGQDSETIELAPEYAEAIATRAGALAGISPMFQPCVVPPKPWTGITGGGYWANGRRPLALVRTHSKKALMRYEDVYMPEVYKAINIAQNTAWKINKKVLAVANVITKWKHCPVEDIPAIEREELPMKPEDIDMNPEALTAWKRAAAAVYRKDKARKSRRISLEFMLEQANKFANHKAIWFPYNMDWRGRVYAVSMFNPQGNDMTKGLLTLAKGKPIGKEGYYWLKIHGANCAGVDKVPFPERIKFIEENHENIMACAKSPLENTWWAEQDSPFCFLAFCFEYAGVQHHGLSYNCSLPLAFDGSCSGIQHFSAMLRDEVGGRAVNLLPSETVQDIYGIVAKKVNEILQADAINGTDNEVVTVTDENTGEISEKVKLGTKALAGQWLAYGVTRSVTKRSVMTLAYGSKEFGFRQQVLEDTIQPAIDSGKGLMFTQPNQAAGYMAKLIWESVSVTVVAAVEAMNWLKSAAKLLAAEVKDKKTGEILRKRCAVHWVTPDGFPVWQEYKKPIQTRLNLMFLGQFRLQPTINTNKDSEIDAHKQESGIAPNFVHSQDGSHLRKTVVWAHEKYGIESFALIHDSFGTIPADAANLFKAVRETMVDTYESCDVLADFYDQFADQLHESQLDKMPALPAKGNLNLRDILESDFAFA", "assay": "Incorporation of 4′-thio UTP into RNA chain with T7 RNA polymerase (26mer transcript)", "type": "biochemical", "conditions": "0.4 mM NTPs (GTP+ATP+CTP+4′-thio UTP), 100 U T7 RNA polymerase, 37° C., 3 hours; compared with lane 4 (native UTP)", "procedure": "Incorporation experiment using T7 RNA polymerase was performed with 4′-thio UTP obtained in Example 9. In this experiment, double-stranded DNA containing T7 promoter sequence was used (FIG. 7).\nThe reaction was conducted in 20 μL of a solution containing 40 mM Tris-HCl with PH 8.0, 8 mM MgCl2, 2 mM spermidine, 5 mM DTT, 0.4 mM NTPs, 17 nM [γ-^32P]GTP, 2.0 μM template DNA and 100 U T7 RNA polymerase. NTPs were (1) GTP, (2) GTP+ATP, (3) GTP+ATP+CTP, (4) GTP+ATP+CTP+UTP, and (5) GTP+ATP+CTP+4′-thio UTP, respectively. The reaction solution was incubated at 37° C. for 3 hours, and the reaction was stopped. Subsequently, electrophoresis was performed with 20% modified polyacrylamide gel (30×40×0.05 cm, 1800 V, 1 hour, 1×TEB), and analysed by autoradiography.\nIn lane 1, bands corresponding to 2mer and 3mer of G and a rudder were observed. In lane 2, an expected band with chain elongation stopped at 6mer was observed, and a minor band elongated by one residue was observed. In lane 3, an expected band with chain elongation stopped at 9mer was observed, and a minor band elongated by one residue was observed. In lane 4, a band of 26mer full-length product was observed."}, "T7 RNA polymerase [2]": {"biological_target": "T1, T7 RNA polymerase", "assay": "Incorporation of 4′-thio UTP and 4′-thio CTP into RNA chain with T7 RNA polymerase (30mer transcript)", "type": "biochemical", "conditions": "0.4 mM NTPs, replacing the native NTP, 47mer double-stranded DNA template, 37° C., 3 hours", "procedure": "Incorporation experiment using T7 RNA polymerase was performed with 4′-thio UTP and 4′-thio CTP. In this experiment, 47mer double-stranded DNA containing T7 promoter sequence was used (FIG. 9).\nThe reaction was conducted in 20 μL of a solution containing 40 mM Tris-HCl with pH 8.0, 8 mM MgCl2, 2 mM spermidine, 5 mM DTT, 0.4 mM NTPS, 17 nM [γ-^32P]GTP, 2.0 μM template DNA and 100 U T7 RNA polymerase. NTPs were (1) ATP, GTP, CTP and UTP, (2) using 4′-thio UTP instead of UTP, 3) using 4′-thio CTP instead of CTP, and 4) UTP and CTP were replaced with 4′-thio UTP and 4′-thio CTP. The reaction solution was incubated at 37° C. for 3 hours, and the reaction was stopped. Subsequently, electrophoresis was performed with 20% modified polyacrylamide gel (30×40×0.05 cm, 1800 V, 1 hour, 1×TEB), and analysed by autoradiography.\nA relative transcription efficiency is shown in FIG. 10 with a transcription efficiency of native NTPs being defined as 100."}}}
{"smiles": "O=c1ccn([C@@H]2S[C@H](COP(=O)(O)OP(=O)(O)OP(=O)(O)O)[C@@H](O)[C@H]2O)c(=O)[nH]1", "note": "[4′-thio UTP, 4′-Thiouridine 5′-triphosphate]", "values": [{"measurement": "band of full-length product (26mer RNA) when used instead of UTP", "setting": "T7 RNA polymerase [1]", "value": "approximately the same amount as in lane 4"}, {"measurement": "recognition by T7 RNA polymerase as substrate and incorporation into RNA chain (30mer full-length product)", "setting": "T7 RNA polymerase [2]", "value": "incorporated into RNA chain efficiently"}]}
{"smiles": "Nc1ccn([C@@H]2S[C@H](COP(=O)(O)OP(=O)(O)OP(=O)(O)O)[C@@H](O)[C@H]2O)c(=O)n1", "note": "[4′-thio CTP, 4′-Thiocytidine 5′-triphosphate]", "values": [{"measurement": "recognition by T7 RNA polymerase as substrate and incorporation into RNA chain (30mer full-length product)", "setting": "T7 RNA polymerase [2]", "value": "incorporated into RNA chain efficiently"}]}
